From patent US9862684B2, “Modulation of K2P channels” (The Regents of the University of California, priority 2013, dated 2018)
Values joined by “and” are separate entries in the source; they are usually repeats but may differ in a detail not shown here. Equal entries are not always repeated.

Key:
K2P3.1 (TASK-1) = molecular target: T1, K2P3.1 (TASK-1) (Mus musculus, UniProt O35111); test: Two-electrode voltage clamp, Xenopus oocytes expressing K2P3.1 (TASK-1); format: cell-based, Murine
T1 construct: expressed in transfected cells; host or cells: Xenopus oocytes
T1 sequence (O35111 whole entry): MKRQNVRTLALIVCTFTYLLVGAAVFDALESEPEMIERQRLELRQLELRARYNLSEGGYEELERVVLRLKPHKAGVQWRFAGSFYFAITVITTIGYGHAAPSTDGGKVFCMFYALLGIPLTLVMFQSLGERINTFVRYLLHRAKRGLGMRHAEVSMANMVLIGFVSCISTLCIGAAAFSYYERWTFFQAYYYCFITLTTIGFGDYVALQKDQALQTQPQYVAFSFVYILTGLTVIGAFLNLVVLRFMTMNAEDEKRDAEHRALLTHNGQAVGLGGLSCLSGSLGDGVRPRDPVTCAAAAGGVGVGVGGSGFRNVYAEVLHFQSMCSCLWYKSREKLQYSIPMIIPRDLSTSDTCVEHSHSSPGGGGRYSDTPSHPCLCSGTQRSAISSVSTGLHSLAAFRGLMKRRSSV
Method: FIG. 7 ML67-33 is a selective activator of heat- and mechanosensitive K2P channels. a-f, Exemplar I-V curves showing the effect of ML67-33 on a, K2P10.1 (TREK-2), b, K2P4.1 (TRAAK), c, K2P3.1 (TASK-1), d, K2P9.1 (TASK-3), e, K2P5.1 (TASK-2), and f, K2P18.1 (TRESK) measured in Xenopus oocytes in 2 mM [K^+]o pH 7.4. Currents were elicited by a voltage ramp from −150 to 50 mV, from a holding potential of −80 mV. g, Quantification of the effect of ML67-33 on the indicated channels. Data (mean±s.e., n≧6, N≧2) was normalized to basal channel activity and fitted to the Hill equation. […] Error bars indicate s.e., n≧6, N≧2.
(§1) Murine K2P channels were cloned into pGEMHE/pMO {Bagriantsev, 2011}, IRES-GFP (Invitrogen), or pYES2-MET25 (high copy 2μ, URA3) {Minor, 1999} for expression in oocytes, HEK-293T cells, and yeast, respectively, using standard molecular biology procedures, and verified by DNA sequencing.
(§2) Two-electrode voltage clamp recordings were performed from defolliculated stage V-VI Xenopus oocytes 24-48 hours after injection with 0.015-6.0 ng cRNA, using microelectrodes (0.3-3.0 MΩ) filled with 3M KCl. Data was acquired using the GeneClamp 500B (MDS Analytical Technologies) amplifier controlled by the pClamp software (Molecular Devices), and digitized at 1 kHz using Digidata 1332A (MDS Analytical Technologies). Recording solutions (mM): 2K (96 NaCl, 2 KCl, 1.8 CaCl2, 2 MgCl2), 90K (90 KCl, 8 NaCl, 1.8 CaCl2, 2 MgCl2), were buffered 5 mM HEPES pH 7.4. For K2P recordings, currents we elicited by a 1 second long ramp from −150 to +50 mV from a holding potential of −80 mV (2K), or −100 to +50 mV from a holding potential of 0 mV (90K). For KCNQ2 recordings, currents were elicited by a step protocol from −120 to 60 mV, in 20 mV increments, from a holding potential of −80 mV. Patch-clamp recordings from HEK-293T cells were performed using microelectrodes (2-3 MΩ) filled with 1M KCl. Data was acquired using the Axopatch 200B amplifier controlled by pClamp software, and digitized at 1 kHz using Digidata 1332A. Recording solutions (mM): intracellular (145 KCl, 5 EGTA, 3 MgCl2,) extracellular (150 NaCl, 5 KCl, 3 MgCl2, 1 CaCl2) were buffered with 5 mM HEPES pH 7.2 and 7.4, respectively. Currents were elicited by a 1 second long ramp from −150 to +50 mV from a holding potential of −80 mV. Data were fitted with a modified Hill's equation: I=Imin+(Imax−Imin)/(1+10^((Log EC50−Log [C])*H)), where Imax and Imin are maximal and minimal current values, respectively, EC50 is a half-maximal effective concentration of the compound, and H is the Hill coefficient.
There are six K2P subgroups {Noel, 2011} (FIG. 11). […]

K2P2.1 (TREK-1) = molecular target: T2, K2P2.1 (TREK-1) (Mus musculus, UniProt P97438); test: Whole cell patch clamp of HEK-293T cells expressing K2P2.1 (TREK-1); format: cell-based, Murine
T2 construct: expressed in transfected cells; host or cells: Xenopus oocytes (cRNA injection, pGEMHE/pMO)
T2 sequence (P97438 1-411 isoform P97438-2): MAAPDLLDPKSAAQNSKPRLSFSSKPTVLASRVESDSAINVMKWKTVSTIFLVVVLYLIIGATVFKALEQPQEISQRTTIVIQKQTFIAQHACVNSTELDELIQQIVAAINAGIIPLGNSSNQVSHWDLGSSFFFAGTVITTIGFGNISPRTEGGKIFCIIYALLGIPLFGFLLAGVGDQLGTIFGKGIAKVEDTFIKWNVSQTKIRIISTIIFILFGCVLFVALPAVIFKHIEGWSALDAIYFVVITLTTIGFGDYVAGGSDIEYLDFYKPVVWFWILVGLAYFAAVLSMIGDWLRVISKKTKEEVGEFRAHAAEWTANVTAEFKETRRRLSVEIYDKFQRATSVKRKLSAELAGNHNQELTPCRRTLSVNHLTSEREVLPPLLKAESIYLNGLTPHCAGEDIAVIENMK
Method: as §1, §2

CC1(C)c2cc(Cl)ccc2N(CCc2nnn[nH]2)c2ccc(Cl)cc21 [ML67-33, 2,7-dichloro-9,9-dimethyl-10-[2-(1H-tetrazol-5-yl)ethyl]acridine] was tested, and the “functional effect / activation (in words)” value (K2P3.1 (TASK-1); ML67-33 applied at 100 μM, ML67 concentration not stated) was “little or no functional effects”, the “Emax (fold)” value (K2P3.1 (TASK-1); at 100 μM (FIG. 7 legend), ** in Table 1) was 1.1±0.0 fold and 1.1 ± 0.1** fold and the “Emax (fold)” value (K2P2.1 (TREK-1); HEK-293T cells, whole cell patch clamp, at 100 μM per FIG. 4 legend) was 11.4±1.1 fold. The EC50 (K2P2.1 (TREK-1); HEK-293T cells, whole cell patch clamp, marked * in Table 1) was 9.7 ± 1.2 µM, the “time of half-maximal activation (t1/2act)” value (K2P2.1 (TREK-1); whole-cell, HEK-293T, 0 mV) was 4.1 ± 0.5 s and the “time of return to baseline following washout (t1/2wash)” value (K2P2.1 (TREK-1); whole-cell, HEK-293T, 0 mV) was 3.9 ± 0.5 s.
